Assay results from publication PMC3199943, “Screening the MayBridge Rule of 3 Fragment Library for Compounds That Interact with the Trypanosoma brucei myo-Inositol-3-Phosphate Synthase and/or Show Trypanocidal Activity” (Molecular Biology International, 2011).
Read-outs that look alike come from different tables or passages of the source.

Legend:
A549 cells = assay: Cytotoxicity against A549 cells, Alamar Blue; type: cell-based; conditions: Supplementary Table 1, compound 0.5 mM, percentage of controls (n=1); for viability at 500 µM: Homo sapiens, A549, 65 h
Method in brief: (§1)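 Alamar Blue read-out after a 5 h dye incubation that followed ~65 h compound exposure. Cells: HeLa or A549, 2 × 10^4/well, DMEM + 10% FCS + 2 mM L-Glutamine.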

TbINO1 = target: T1, TbINO1 (Trypanosoma brucei brucei, UniProt Q5QQ46); assay: biochemical; type: binding; conditions: for Tb Ino1 Tm Shift [˚C]: Supplementary Table 1, compound 1mM, mean ± SD from Boltzman curve fitting
T1 sequence (Q5QQ46 1-528): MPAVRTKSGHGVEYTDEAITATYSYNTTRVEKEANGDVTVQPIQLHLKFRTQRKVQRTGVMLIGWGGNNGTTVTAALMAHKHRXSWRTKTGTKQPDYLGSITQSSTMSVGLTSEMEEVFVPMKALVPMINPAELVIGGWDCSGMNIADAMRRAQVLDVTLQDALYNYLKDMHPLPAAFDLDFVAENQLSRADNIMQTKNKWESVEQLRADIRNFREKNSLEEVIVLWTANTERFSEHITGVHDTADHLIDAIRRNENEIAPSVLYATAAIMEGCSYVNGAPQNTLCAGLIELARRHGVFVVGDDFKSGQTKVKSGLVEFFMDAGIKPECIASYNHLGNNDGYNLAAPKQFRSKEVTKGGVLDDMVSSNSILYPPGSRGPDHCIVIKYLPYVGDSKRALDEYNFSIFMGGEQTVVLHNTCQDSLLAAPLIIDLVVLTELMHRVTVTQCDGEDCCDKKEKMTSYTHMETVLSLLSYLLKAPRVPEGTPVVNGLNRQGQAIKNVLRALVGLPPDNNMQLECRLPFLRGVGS

HeLa cells = assay: cells; conditions: for viability at 500 µM: Homo sapiens, HeLa, 65 h; for HeLa Cells Alamar Blue: Supplementary Table 1
Method in brief: as §1

[1] = read-out: Tb Ino1 Tm Shift [˚C]
[2] = read-out: HeLa Cells Alamar Blue
[3] = compound 0.5 mM, percentage of controls, mean ± SD (n=3) or SE (n=2)

Row | SMILES | ΔTm at 1000 µM (TbINO1; [1]) | viability at 500 µM (A549 cells) | viability at 500 µM (HeLa cells; [2]) | other results
1 | O=C(O)C1CCCCO1 (centres unmarked) [compound 93, tetrahydropyran‐2‐carboxylic acid] | 0.55 ± 0.06 °C | 107% | 97.5 ± 2.4% | 
2 | ON=C1CCCc2ccccc21 [compound 279, 1,2,3,4‐tetrahydronaphthalen‐1‐one oxime] |  |  |  | A549 Cells Alamar Blue (A549 cells): 16.9 percentage of controls; Tb Ino1 Tm Shift [˚C] (TbINO1): 0.76 ± 0.08 °C; HeLa Cells Alamar Blue (HeLa cells; [3]): 19.9 ± 19.7 percentage of controls
3 | Nc1cccc(-n2cccc2)c1 [compound 251, 3‐(1H‐pyrrol‐1‐yl)aniline] | 0.15 ± 0.05 °C | 79.8% | 80.5 ± 3.4% | 
4 | OCc1ccc(-c2cccs2)s1 [compound 598, 2,2′-bithien-5-ylmethanol] |  | 86.3% | 78 ± 11.6% | ΔTm at 1000 µM (TbINO1; read-out: TbIno1 Tm shift [°C]): 1.72 ± 0.06 °C; viability at 500 µM (HeLa cells; read-out: HeLa Cells Alamar Blue (% survival)): 78 ± 11.6%
5 | C1CNCCNC1 [compound 13, 1,4‐diazepane] | 0.4 ± 0.07 °C | 82.4% | 88.5 ± 11.1% | 
6 | Nc1ccc2c(c1)OCO2 [compound 121, 1,3‐benzodioxol‐5‐amine] | 0.72 ± 0.07 °C | 110% | 76.7 ± 16% | 
7 | Cc1nc(-c2ccccc2)c(CO)s1 [compound 666, (2‐methyl‐4‐phenyl‐1,3‐thiazol‐5‐yl)methanol] |  |  |  | A549 Cells Alamar Blue (A549 cells): 113.4 percentage of controls; Tb Ino1 Tm Shift [˚C] (TbINO1): 0.08 ± 0.05 °C; HeLa Cells Alamar Blue (HeLa cells; [3]): 95.3 ± 5 percentage of controls
8 | CNc1ccc(F)cc1F [compound 144, N1‐methyl‐2,4‐difluoroaniline] | 1.09 ± 0.06 °C | 110% | 79.3 ± 10.3% | 
9 | Cc1cc(O)cc(C)c1C#N [compound 164, 4‐hydroxy‐2,6‐dimethylbenzonitrile] | 0.26 ± 0.08 °C | 90% | 55.8 ± 12.1% | 
10 | COC(=O)c1ccsc1N [compound 242, methyl 2‐aminothiophene‐3‐carboxylate] | 0.34 ± 0.08 °C | 80.5% | 37 ± 6.1% | 
11 | CN1C2CCC1CC(=NO)C2.Cl [compound 552, 8‐methyl‐8‐azabicyclo[3.2.1]octan‐3‐one oxime hydrochloride] |  |  |  | A549 Cells Alamar Blue (A549 cells): 105.3 percentage of controls; Tb Ino1 Tm Shift [˚C] (TbINO1): 0 ± 0.09 °C; HeLa Cells Alamar Blue (HeLa cells; [3]): 103.5 ± 9.7 percentage of controls
12 | Cc1cc(O)nc2ccccc12 [compound 258, 4‐methyl‐2‐quinolinol] | 0.17 ± 0.06 °C | 90.7% | 92.7 ± 13.6% | 
13 | CCc1cccc(C)n1 [compound 52, 2‐ethyl‐6‐methylpyridine] | 0.4 ± 0.08 °C | 70.8% | 89.7 ± 9.7% | 
14 | Cc1nc(C(N)=S)cs1 [compound 252, 2‐methyl‐1,3‐thiazole‐4‐carbothioamide] | 0.7 ± 0.07 °C | 102% | 90.3 ± 10.7% | 
15 | Fc1ccc(-n2cccc2)cc1 [compound 276, 1‐(4‐fluorophenyl)‐1H‐pyrrole] | 0.75 ± 0.08 °C | 70.2% | 104 ± 16.6% | 
16 | Cc1nc(C(C)(C)C)cs1 [compound 229, 4‐(tert‐butyl)‐2‐methyl‐1,3‐thiazole] | 0.23 ± 0.07 °C | 65.6% | 108 ± 11.8% | 
17 | NC(=S)N1CCOCC1 [compound 159, morpholine‐4‐carbothioamide] | 0.21 ± 0.05 °C | 109% | 93.8 ± 9.3% | 
18 | c1cncc(-n2cccc2)c1 [compound 151, 3‐(1H‐pyrrol‐1‐yl)pyridine] | 0.43 ± 0.06 °C | 90.1% | 90.3 ± 6% | 
19 | O=C(O)c1cc2sccc2[nH]1 [compound 328, 4H-thieno[3,2-b]pyrrole-5-carboxylic acid] |  | 136% |  | ΔTm at 1000 µM (TbINO1; read-out: TbIno1 Tm shift [°C]): 2.29 ± 0.1 °C; viability at 500 µM (HeLa cells; read-out: HeLa Cells Alamar Blue (% survival), compound 0.5 mM, percentage of controls): 106 ± 6.9%; viability at 500 µM (HeLa cells; read-out: HeLa Cells Alamar Blue, Supplementary Table 1, compound 0.5 mM, percentage of controls, mean ± SD (n=3) or SE (n=2)): 106 ± 6.9%
20 | Oc1ccc(F)c(Cl)c1 [compound 160, 3‐chloro‐4‐fluorophenol] | 0.02 ± 0.05 °C | 77.4% | 94.9 ± 15.3% | 
21 | Cn1nccc1N [compound 7, 1‐methyl‐1H‐pyrazol‐5‐ylamine] | 0.12 ± 0.06 °C | 124% | 106 ± 6.2% | 
22 | Cc1csc(C(N)=O)c1 [compound 134, 4‐methylthiophene‐2‐carboxamide] | 0.61 ± 0.07 °C | 123% | 83.1 ± 5.6% | 
23 | N#Cc1cc(Cl)ccc1O [compound 218, 5‐chloro‐2‐hydroxybenzonitrile] | 0.43 ± 0.07 °C | 67.7% | 92 ± 11.8% | 
24 | Clc1ccc2nonc2c1 [compound 225, 5‐chloro‐2,1,3‐benzoxadiazole] | 0.81 ± 0.19 °C | 68.9% | 91.4 ± 15.1% | 
25 | CCOC(=O)c1c(N)sc(C)c1C [compound 617, ethyl 2‐amino‐4,5‐dimethylthiophene‐3‐carboxylate] |  |  |  | A549 Cells Alamar Blue (A549 cells): 75.2 percentage of controls; Tb Ino1 Tm Shift [˚C] (TbINO1): 1.47 ± 0.07 °C; HeLa Cells Alamar Blue (HeLa cells; [3]): 69.1 ± 9.3 percentage of controls
26 | OCc1cc(F)cc2c1OCOC2 [compound 476, (6‐fluoro‐4H‐1,3‐benzodioxin‐8‐yl)methanol] |  |  |  | A549 Cells Alamar Blue (A549 cells): 78.9 percentage of controls; Tb Ino1 Tm Shift [˚C] (TbINO1): 0.01 ± 0.07 °C; HeLa Cells Alamar Blue (HeLa cells; [3]): 102.6 ± 9.4 percentage of controls
27 | OCc1cn2ccsc2n1 [compound 221, imidazo[2,1‐b]thiazol‐6‐ylmethanol] | 0.09 ± 0.23 °C | 99.5% | 107 ± 7.6% | 

Now from value to compound, other results behind:

Row | ΔTm at 1000 µM (TbINO1; [1]) | SMILES | viability at 500 µM (A549 cells) | viability at 500 µM (HeLa cells; [2]) | other results
28 | 0.18 ± 0.05 °C | N#Cc1ccc(OC2CCOCC2)cc1 [compound 645, 4‐(tetrahydropyran‐4‐yloxy)benzonitrile] | 102% | 77.4 ± 15.8% | 
29 | 0.21 ± 0.07 °C | CC(C)(C)OC(=O)Nc1ccsc1 [compound 619, tert‐butyl N‐(3‐thienyl)carbamate] | 74.9% | 80 ± 17.5% | 
30 | 0.12 ± 0.08 °C | Cc1ccc2cc(C(=O)O)ccc2n1 [compound 510, 2‐methyl‐6‐quinolinecarboxylic acid] | 126% | 117 ± 10.8% | 
31 | 0.35 ± 0.06 °C | OCc1ccc(N2CCCC2)cc1 [compound 427, [4‐(1‐pyrrolidinyl)phenyl]methanol] | 64.2% | 59.8 ± 14.4% | 
32 | 0.1 ± 0.07 °C | O=C(O)c1nsc(Cl)c1Cl [compound 602, 4,5‐dichloroisothiazole‐3‐carboxylic acid] | 68.2% | 83.2 ± 12.5% | 
33 | 0.07 ± 0.08 °C | CNCc1cccc(-c2cccnc2)c1 [compound 606, N‐methyl‐N‐(3‐pyridin‐3‐ylbenzyl)amine] | 69.8% | 70.8 ± 5.8% | 
34 | 0.18 ± 0.06 °C | CC(=O)c1ccc(S(C)(=O)=O)cc1 [compound 604, 1‐[4‐(methylsulfonyl)phenyl]ethan‐1‐one] | 63.9% | 83.1 ± 19.6% | 
35 | 0.46 ± 0.07 °C | CC(=O)CSc1ccc(C)cc1 [compound 460, 1‐[(4‐methylphenyl)thio]acetone] | 96.9% | 97 ± 2.5% | 
36 | 0.46 ± 0.06 °C | O=C(O)c1ccc(-c2ccccc2)nc1 [compound 610, 6‐phenylnicotinic acid] | 125% | 82.3 ± 8.2% | 
